Reference: the NIST ThermoML archive (doi:10.1021/je900596d)

Conditions: 355.18 K, Liquid, Vibrating tube method

FC(F)=C(F)C(F)(F)F [hexafluoropropene]
Conditions | mass density [kg/m3]
3539.3 kPa | 945.7
3560.5 kPa | 947.64
3582.1 kPa | 949.46
3603.9 kPa | 951.17
3625.9 kPa | 953.18
3667.2 kPa | 956.48
3687.7 kPa | 958.15
3708.3 kPa | 959.83
3730.3 kPa | 961.36
3751.6 kPa | 963.12
3773.4 kPa | 964.61
3795.3 kPa | 966.25
3807.5 kPa | 967.13
3828.9 kPa | 968.54
3851.4 kPa | 970.11
3873.7 kPa | 971.7
3916.8 kPa | 974.54
3938.9 kPa | 976.09
3959.3 kPa | 977.28
3981 kPa | 978.83
4015.2 kPa | 980.9
4033.6 kPa | 981.94
4071.4 kPa | 984.1
4091.9 kPa | 985.37
4110.7 kPa | 986.72
4129.8 kPa | 987.54
4149.4 kPa | 988.81
4167.6 kPa | 989.92
4186.6 kPa | 990.96
4206.8 kPa | 992.1
4226.2 kPa | 992.98
4244.6 kPa | 994.12
4263.6 kPa | 995.02
4281.8 kPa | 995.99
4338 kPa | 998.86
4375.5 kPa | 1000.94
4413 kPa | 1002.73
4449.8 kPa | 1004.57
4487.2 kPa | 1006.43
4525 kPa | 1008.13
4562.1 kPa | 1009.97
4599 kPa | 1011.6
4638.8 kPa | 1013.65
4677.4 kPa | 1015.25
4716.6 kPa | 1016.92
4794.9 kPa | 1020.36
4873.9 kPa | 1023.7
4913.4 kPa | 1025.32
4951 kPa | 1026.84
4991.2 kPa | 1028.51
5029.8 kPa | 1029.94
5070.6 kPa | 1031.42
5113 kPa | 1033.05
5154.1 kPa | 1034.66
5236.8 kPa | 1037.65
5275.8 kPa | 1039.14
5316.9 kPa | 1040.61
5355.6 kPa | 1041.9
5398.7 kPa | 1043.42
5439.2 kPa | 1044.89
5483.2 kPa | 1046.3
5561 kPa | 1048.84
5601.4 kPa | 1050.18
5642.3 kPa | 1051.53
5684.6 kPa | 1052.92
5724.6 kPa | 1054.21
5768.2 kPa | 1055.5
